Assay results as given in patent US20240390487A1, “TLR AGONISTS FOR REDUCING ACTIVATION-INDUCED PD-1 EXPRESSION ON T CELLS AND METHODS OF USE” (WISCONSIN ALUMNI RESEARCH FOUNDATION, priority 2016, published 2024).
“Also recorded” adds a separate entry of the source.

Tests used:
[1] = tested on: SSX2-expressing sarcoma cells; assay: SSX2 tumor treatment study: DNA vaccine with or without TLR agonist; format: in vivo, mice; settings: for anti-tumor efficacy / tumor growth suppression in combination with DNA vaccine: TLR agonist with DNA vaccine versus vaccine alone; for effect on tumor growth of TLR agonist alone (with vector DNA): with control vector pTVG4
Procedure: Mice expressing human HLA-A2 were injected subcutaneously with SSX2-expressing sarcoma cells. Starting one day after inoculation, and every 7 days thereafter, mice were vaccinated with a DNA vaccine encoding SSX2, an optimized version of SSX2 with increased affinity for HLA-A2 (pTVG-SSX2 opt) or negative control vector pTVG4. All were done with or without TLR1/2 agonist or TLR7 agonist mixed with the DNA. A solution of DNA and a solution of TLR agonist in PBS were made and mixed together prior to administration. Note that TLR stimulation via a TLR agonist improves the efficacy of pTVG-SSX2 opt to a greater extent than pTVG-SSX2.
Using this model, HLA-A2-expressing transgenic mice were implanted with synovial sarcoma, X breakpoint 2 (SSX-2)-expressing tumor cells. […], mice were then immunized weekly with control vector (pTVG4), DNA encoding native SSX2 (pTVG-SSX2), or DNA encoding high affinity HLA-A2 epitopes (pTVG-SSX2 opt) in the presence or absence of Pam3CSK4 (TLR1/2) or Gardiquimod (TLR7) agonist.
SSX2 tumor treatment studies: 6- to 8-week old HHDII-DR1 mice were inoculated with 10^5 A2/Sarc-SSX2 cells administered subcutaneously, and then immunized intradermally with DNA vaccines weekly beginning one day after tumor implantation, as previously described (42). TLR agonists or vehicle were co-administered with the vaccine intradermally, and tumor volumes were measured over time using calipers, as described above.

[2] = tested on: CD8+ OT-1 T cells; settings: for Eomesodermin (EOMES gene) expression / expression of genes associated with T-cell regulation (including PD-1 and IL-10): 24 to 72 hours, versus peptide alone
Procedure: CD8+ OT-1 T cells were then purified and evaluated for gene expression changes by RNA sequencing (RNA-seq).
RNA preparation and sequencing: Cells were stimulated in vitro as above, and at the times indicated T cells were isolated via immunomagnetic negative selection (StemCell, Vancouver, Canada 19853), RNA was collected as per the manufacturers instruction (Direct-zol RNA MiniPrep Plus w/TRI Reagent, Zymo Research), treated with DNAse (TURBO DNA-free Kit, Invitrogen), and stored at −80° C. until analysis at the UW-Madison Biotechnology Center. Total RNA was verified for purity and integrity via a NanoDrop2000 Spectrophotometer and Agilent 2100 BioAnalyzer, respectively. Samples that met the Illumina sample input guidelines were prepared using the Illumina® TruSeq® Stranded mRNA Sample Preparation kits (Illumina Inc., San Diego, California, USA). For each library preparation, mRNA was purified from 1000 ng total RNA using poly-T oligo-attached magnetic beads. Subsequently, each poly-A enriched sample was fragmented using divalent cations under elevated temperature. The fragmented RNA was synthesized into double-stranded cDNA using SuperScript II Reverse Transcriptase (Invitrogen, Carlsbad, California, USA) and random primers for first strand cDNA synthesis followed by second strand synthesis using DNA Polymerase I and RNAse H for removal of mRNA. Double-stranded cDNA was purified by paramagnetic beads (Agencourt AMPure XP beads, Beckman Coulter). The cDNA products were incubated with Klenow DNA Polymerase and DNA fragments, ligated to Illumina adapters, and purified by paramagnetic beads. Adapter ligated DNA was amplified in a Linker Mediated PCR reaction (LM-PCR) for 11 cycles using Phusion™ DNA Polymerase and Illumina's PE genomic DNA primer set and then purified by paramagnetic beads. Quality and quantity of the finished libraries were assessed using an Agilent DNA1000 chip (Agilent Technologies. Inc., Santa Clara, CA, USA) and Qubit® dsDNA HS Assay Kit (Invitrogen, Carlsbad, California, USA), respectively. Libraries were standardized to 2 μM. Cluster generation was performed using standard Cluster Kit (v3) and the Illumina Cluster Station. Single 100 bp sequencing was performed, using standard SBS chemistry (v4) on an Illumina HiSeq2500 sequencer. Images were analyzed using the standard Illumina Pipeline, version 1.8.2.
RNA sequencing data analysis: Illumina sequencing reads were adapter and quality trimmed using the Skewer trimming program. Quality reads were subsequently aligned to the annotated reference genome using the STAR aligner (43). Quantification of expression for each gene was calculated by RSEM (44), the expected read counts from RSEM were filtered for low/empty values and used for differential gene expression analysis using DESeq2 (45). All remaining genes from the pairwise comparisons were analyzed using Gene Set Enrichment Analysis (GSEA) (46, 47) to identify pathways (based on GO terms (c5.all.v6) from the Molecular Signatures Database (MSigDB (48)) as well as custom gene sets involved in TLR1/2 versus TLR7 ligand activation. GSEA was performed by calculating a ranked vector as log2 fold-change. Analysis was performed using R 3.3.1 (49) and Bioconductor 2.32.0 (50). Venn diagrams were generated using the VennDiagram package.

[3] = tested on: ovalbumin-expressing E.G7 cells; assay: Ovalbumin tumor treatment study: peptide immunization with or without TLR agonist; format: in vivo, mice; settings: for anti-tumor effect of peptide immunization with TLR agonist: OVA or FT peptide with TLR agonist versus peptide alone, E.G7 tumors, OT-1 transfer; for LAG-3 expression on CD8+ TIL / PD-1 expression on CD8+ TIL / PD-L1 expression on tumor cells / number of CD8+ tumor-infiltrating lymphocytes: tumors at necropsy; for anti-tumor efficacy of TLR ligand adjuvant alone: with non-specific peptide, no antigen-specific T-cell activation
Procedure: OT-1 T cells were then adoptively transferred and the following day were immunized with SIINFEKL (SEQ ID NO:1, OVA) or FT peptide (SEQ ID NO:2) alone or with TLR1/2 or TLR7 agonist. Other groups were immunized with 100 μg anti-PD-1 antibody delivered the following day. […] This anti-tumor effect was not observed with TLR agonist treatment alone (FIG. 22). […] This was associated with a reduced PD-1 (but not LAG-3) expression on CD8+ TIL (FIG. 17C).
Ovalbumin tumor treatment studies: 10^6 ovalbumin-expressing E.G7 PD-L 1^high cells were injected subcutaneously into 6- to 10-week old female B6 mice. Ten to fifteen days post injection, when tumors were palpable and similarly sized (˜0.2 cm^3), 2×10^6 naïve OT-1 CD8+ T cells were adoptively transferred to each mouse as described above. The following day mice were immunized subcutaneously with 100 μg of an individual peptide (SIINFEKL (SEQ ID NO:1) or variant, LifeTein) in PBS, with or without TLR agonists as described above. In the group receiving PD-1 blocking antibody, 100 μg of antibody (clone G4 (52)) was injected intraperitoneally on the day following vaccination. Tumor volume was measured over time using calipers and calculated in cubic centimeters according to the following formula: (π/6)*(long axis)*(short axis)^2. Tumors obtained at necropsy were digested in media containing 1 mg/mL collagenase and 20 μg/mL DNAse I (Sigma, St. Louis, MO) for 1-2 hours at 37° C. and passed through a 100-μm screen to obtain a single-cell suspension. Tumor cells and tumor-infiltrating lymphocytes (TILs) were stained and analyzed by flow cytometry using the following panel: CD3-FITC (BD 555274), CD4-BUV395 (BD 563790), CD8-BUV805 (BD 564920), LAG-3-BV711 (BD 563179), PD1-PECF594 (BD 562523), PDL1-PECy7 (BD 558017), 41BB-PerCPeF710) (eBioscience 46-1371-82), CD45-BV510 (BD 563891) and Live/Dead Ghost dye 780 (Tonbo, San Diego, CA 13-0865-T100) or corresponding fluorescently labeled IgG controls.

Row | Molecule | anti-tumor efficacy / tumor growth suppression in combination with DNA vaccine [1] | effect on tumor growth of TLR agonist alone (with vector DNA) [1] | expression of genes associated with Th1-biased cytotoxic effector function (IFNγ, TNFα, granzymes A-C, perforin, T-Bet) [2] | Eomesodermin (EOMES gene) expression [2] | expression of genes associated with T-cell regulation (including PD-1 and IL-10) [2] | anti-tumor effect of peptide immunization with TLR agonist [3] | LAG-3 expression on CD8+ TIL [3] | PD-1 expression on CD8+ TIL [3] | PD-L1 expression on tumor cells [3] | number of CD8+ tumor-infiltrating lymphocytes [3] | anti-tumor efficacy of TLR ligand adjuvant alone [3]
1 | CCNCc1nc2c(N)nc3ccccc3c2n1CC(C)(C)O [Gardiquimod] | significantly increased; also recorded: improved the tumor growth suppression | modest effects | induced | reduced | reduced | greater anti-tumor effect | not | reduced | reduced | greater number | do not have significant anti-tumor efficacy
2 | Pam3CSK4 | significantly increased; also recorded: improved the tumor growth suppression | modest effects | induced | reduced | reduced | greater anti-tumor effect | not | reduced | reduced | greater number | do not have significant anti-tumor efficacy
